Source: the supplement of paper PMC10307832

What was measured:
Experiment in all cases: relative viability (nuclei count vs DMSO), 5 days (fraction); higher = more cells survive
Linsitinib + Tozasertib = compound: C[C@]1(O)C[C@@H](c2nc(-c3ccc4ccc(-c5ccccc5)nc4c3)c3c(N)nccn32)C1 [Linsitinib] + Cc1cc(Nc2cc(N3CCN(C)CC3)nc(Sc3ccc(NC(=O)C4CC4)cc3)n2)n[nH]1 [Tozasertib] (partner 0.1 µM)
Summary of the method: (§1)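 Lung cancer cell lines in 1536-well plates were dosed by pin tool the day after seeding, either with one drug alone or with a fixed anchor-drug dose plus five library-drug doses (not always all listed) in √10 steps. After 5 days, cells were fixed and their nuclei stained in one step (final 0.05% Triton X-100, 1% formaldehyde, 1 ug/ml Hoechst), then counted on 4× images. Relative viability is the nuclei count in treated wells divided by that in vehicle wells. Values are medians of duplicate plates.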

Linsitinib + Alpelisib = compound: C[C@]1(O)C[C@@H](c2nc(-c3ccc4ccc(-c5ccccc5)nc4c3)c3c(N)nccn32)C1 [Linsitinib] + Cc1nc(NC(=O)N2CCC[C@H]2C(N)=O)sc1-c1ccnc(C(C)(C)C(F)(F)F)c1 [Alpelisib] (partner 2 µM)
Summary of the method: as §1

Ispinesib + Olaparib = compound: Cc1ccc(C(=O)N(CCCN)[C@@H](c2nc3cc(Cl)ccc3c(=O)n2Cc2ccccc2)C(C)C)cc1 [Ispinesib] + O=C(c1cc(Cc2n[nH]c(=O)c3ccccc23)ccc1F)N1CCN(C(=O)C2CC2)CC1 [Olaparib] (partner 8 µM)
Summary of the method: as §1

Ispinesib + Navitoclax = compound: Cc1ccc(C(=O)N(CCCN)[C@@H](c2nc3cc(Cl)ccc3c(=O)n2Cc2ccccc2)C(C)C)cc1 [Ispinesib] + CC1(C)CCC(c2ccc(Cl)cc2)=C(CN2CCN(c3ccc(C(=O)NS(=O)(=O)c4ccc(N[C@H](CCN5CCOCC5)CSc5ccccc5)c(S(=O)(=O)C(F)(F)F)c4)cc3)CC2)C1 [Navitoclax] (partner 0.5 µM)
Summary of the method: as §1

Cell Line | relative viability (Linsitinib + Tozasertib; first compound 0.01 µM) | relative viability (Linsitinib + Tozasertib; first compound 0.03162 µM) | relative viability (Linsitinib + Tozasertib; first compound 0.1 µM) | relative viability (Linsitinib + Tozasertib; first compound 0.3162 µM) | relative viability (Linsitinib + Tozasertib; first compound 1 µM) | relative viability (Linsitinib + Alpelisib; first compound 0.01 µM) | relative viability (Linsitinib + Alpelisib; first compound 0.03162 µM) | relative viability (Linsitinib + Alpelisib; first compound 0.1 µM) | relative viability (Linsitinib + Alpelisib; first compound 1 µM) | relative viability (Ispinesib + Olaparib; first compound 0.001 µM) | relative viability (Ispinesib + Olaparib; first compound 0.003162 µM) | relative viability (Ispinesib + Olaparib; first compound 0.01 µM) | relative viability (Ispinesib + Olaparib; first compound 0.03162 µM) | relative viability (Ispinesib + Olaparib; first compound 0.1 µM) | relative viability (Linsitinib + Alpelisib; first compound 0.3162 µM) | relative viability (Ispinesib + Navitoclax; first compound 0.001 µM) | relative viability (Ispinesib + Navitoclax; first compound 0.003162 µM) | relative viability (Ispinesib + Navitoclax; first compound 0.01 µM) | relative viability (Ispinesib + Navitoclax; first compound 0.03162 µM) | relative viability (Ispinesib + Navitoclax; first compound 0.1 µM)
NCI-H650 | 0.762 | 0.786 | 0.699 | 0.502 | 0.601 | 1.34 | 1.23 | 1.02 | 1.07 | 0.361 | 0.384 | 0.409 | 0.427 | 0.278 | – | – | – | – | – | –
IA-LM | – | – | – | – | – | 0.829 | 0.809 | 0.743 | 0.51 | 0.916 | 0.938 | 1.15 | 1.02 | 0.155 | 0.387 | 0.969 | 0.751 | 0.44 | 0.0088 | 0.0187
A-427 | 0.211 | 0.222 | 0.234 | – | 0.177 | 1.11 | 1.02 | 1.05 | 0.997 | 0.714 | 0.784 | 0.728 | 0.696 | 0.22 | – | 0.938 | 0.995 | 1.06 | 0.827 | 0.903
NCI-H2347 | 0.557 | 0.669 | 0.571 | – | 0.414 | 1.01 | 1.21 | 1.01 | 0.902 | 0.504 | 0.692 | 0.592 | 0.559 | 0.525 | 0.595 | 0.819 | 0.727 | 0.967 | 0.762 | 0.609
NCI-H1793 | 0.388 | 0.454 | 0.316 | 0.313 | 0.274 | 0.71 | 0.734 | 0.738 | 0.738 | 1.04 | 0.833 | 1.19 | 0.752 | 0.371 | 0.615 | 0.464 | 0.729 | 0.382 | 0.394 | 0.405
NCI-H1651 | 0.619 | 0.646 | 0.714 | 0.484 | 0.513 | 1.03 | 0.989 | 0.822 | 0.957 | 0.183 | 0.217 | 0.179 | 0.169 | 0.19 | 0.738 | 1.28 | 1.13 | 1.3 | 0.991 | 0.213
HCC-78 | 0.643 | 0.482 | 0.418 | 0.378 | 0.319 | 0.413 | 0.439 | 0.26 | 0.261 | 0.876 | 0.82 | 0.887 | 0.704 | 0.59 | 0.312 | 0.706 | 0.851 | 0.85 | – | 0.657
NCI-H23 | 0.365 | 0.485 | 0.372 | 0.437 | 0.331 | 0.728 | 0.577 | 0.582 | 0.516 | 0.306 | 0.379 | 0.336 | 0.384 | 0.175 | 0.448 | 0.803 | 0.783 | 1.04 | 0.794 | 0.472
LOU-NH91 | 0.705 | 0.642 | 0.708 | 0.531 | 0.594 | 0.743 | 0.656 | 0.7 | 0.602 | 0.929 | 0.915 | 0.969 | 0.906 | 0.369 | 0.76 | 0.647 | 0.71 | 0.64 | 0.407 | 0.333
LXF-289 | 0.184 | 0.193 | 0.196 | – | 0.148 | 0.992 | 0.988 | 1.1 | 1.02 | 1.07 | 1.21 | 1.44 | 1.05 | 0.95 | 0.841 | 0.934 | 0.995 | 1.12 | 0.922 | 0.469
NCI-H460 | 0.476 | 0.381 | 0.508 | 0.328 | 0.367 | 0.46 | 0.325 | 0.475 | 0.351 | 0.538 | 0.504 | 0.436 | 0.597 | 0.195 | 0.329 | 1.43 | 1.33 | – | 0.785 | 0.0262
NCI-H1792 | – | – | – | – | – | 0.803 | 0.751 | 0.615 | 0.538 | 0.385 | 0.394 | 0.252 | 0.53 | 0.152 | 0.606 | 0.827 | 0.825 | 0.594 | 0.299 | 0.516
EMC-BAC-2 | 0.294 | 0.271 | 0.291 | 0.206 | 0.255 | 0.7 | 0.689 | 0.748 | 0.667 | 0.479 | 0.474 | 0.513 | 0.418 | 0.325 | 0.613 | 1.2 | 1.35 | 1.28 | 1.08 | 0.758
CAL-12T | 0.267 | 0.287 | 0.296 | 0.255 | 0.225 | 1.18 | 1.18 | 1.24 | 1.07 | 0.754 | 0.791 | 0.896 | 0.768 | 0.217 | 0.99 | 1.28 | 1.4 | 1.47 | 0.537 | 0.177
